# According to patent publication US5874461A, “Use of Nebivolol as an anti-atherogenic” (priority 1995, dated 1999):
# Tests used:
# [1] = tested on: rats (age-associated vascular pathology); test: In-vivo anti-atheromatic effect: 24-month oral study in rats, histological score of vascular degeneration/aging
# Experimental: In order to verify whether nebivolol had any effects on age-associated vascular pathology, a number of rats were administered nebivolol orally at dosages of 0 (carrier-only), 2.5, 10 and 40 mg/kg during 24 months. As a carrier there was used 2-hydroxypropyl-β-cyclodextrin which improves the bioavailability of nebivolol. At each dose a male and a female group of 50 were entered in the 2 year study. […] The test animals were autopsied and observed for histological non-neoplastic changes.
# vasculopathy of the abdominal mesothelia, pancreas, and testis,
# focal and diffuse hyperplasia of the parathyroid gland, and
# the renal histology, in particular the number of basophilic tubuli, evidence for chronic renal disease and for mineralization.
# Histopathological observations received a score from 0 to 3 as follows:
# 0: no histological change
# 1: slight histological change
# 2: moderate histological change
# 3: severe histological change.
# For each observation a mean score was calculated. The observed ratings were analysed using the Mann-Whitney U test (two tailed probability) to detect statistically significant differences between the control groups and the treated groups. Significance computed by Mann-Whitney U test two-tailed: * p<0.05 ** p<0.01 p<0.001.
# [2] = tested on: spontaneous hypertensive rats; conditions: acute; cited from earlier work
# human LDL = test: In vitro oxidation of human LDL (Cu-induced conjugated diene formation at 234 nm); type: biochemical; conditions: in vitro
# Experimental: In vitro oxidation of human LDL Human venous blood was collected on EDTA (2.68 mM final concentration). Plasma was isolated by centrifugation. NaBr (37.3 mg/ml) was added and solubulized (final density 1.036 g/ml). Centrifuge tubes were first filled to a level corresponding to 2/3 of their maximal volume, further filled with a NaBr solution of 1.036 g/ml and then centrifuged for 18 hours at 45000 rpm in a 50 Ti rotor (Beckmann). After centrifugation, floating lipoproteins were discarded. The remaining solution was adjusted to a density of 1.055 g/ml. Filling of the centrifuge tubes and centrifugation were repeated as described above. After centrifugation, floating LDL was dialysed against a buffer containing 127 mM NaCl, 8 mM Na2 HPO4.2H2 O, 2.7 mM KCl and 1.47 mM KH2 PO4 at pH 7.4. After dialysis, LDL was filtered though a Millipore filter (0.45 μM) and protein content was determined. A dilution of 25 μg/ml was prepared with a millipored dialysis buffer. Oxidation was determined in a Pharmacia Ultraspec III spectrophotometer. Conjugated diene formation was registered at 234 nm. Two μl of a drug or solvent (DMSO) were added to Eppendorf tubes followed by 1 ml of LDL (25 μg/ml) and these substances were gently mixed and centrifuged for 1 min at 13000 g. The solution was pipetted in a Quartz cuvet that was thermostatised in the spectrophotometer at 37° C. After equilibration, the oxidation reaction was started by the addition of CuSO4 (final concentration 10 μM). Absorbance was measured every 3 minutes during the time course of the experiment. The absorbance at 234 nm was divided into three phases: a lag phase, a propagation phase and a decomposition phase (FIG. 1). The lag phase was defined as the intercept with the baseline of the tangent of the slope of the absorbance curve of the propagation phase. The rate of oxidation was defined as the tangent of the slope. Tmax was defined as the time required to attain the maximum absorbance between the propagation and the decomposition phase. The absorbance at tmax minus the absorbance at to was taken as an indicator of the total amount of dienes formed. To verify the reproducibility of the assay, a reference LDL sample was prepared and kept in darkness under nitrogen at 4° C. This reference sample was included in every oxidation experiment. LDL was isolated from 23 subjects. Plasma cholesterol ranged from 156 to 278 mg/dl (mean 213 mg/dl), triglycerides ranged from 47 to 328 mg/dl (mean 191 mg/dl) and phospholipids ranged from 178 to 327 mg/dl (mean 231 mg/dl).
# anaesthetized dogs = conditions: anaesthesized dogs; cited from earlier work
# [3] = females, 2.5 mg/kg oral, 24 months
# [4] = females, 10 mg/kg oral, 24 months
# [5] = females, 40 mg/kg oral, 24 months
# [6] = males, 2.5 mg/kg oral, 24 months
# [7] = males, 10 mg/kg oral, 24 months
# [8] = males, 40 mg/kg oral, 24 months
compound,measurement,setting,value
"O[C@H](CNC[C@@H](O)[C@H]1CCc2cc(F)ccc2O1)[C@@H]1CCc2cc(F)ccc2O1 (relative stereo) [nebivolol, (RSSS) and (SRRR) α,α'-iminobis(methylene)bis[6-fluoro-2-chroman-methanol]]",normal aging of the vascular system,"[1]; chronic treatment, versus control animals",the normal aging of the vascular system as seen in the control animals is suppressed
same,"Kidney: basophilic tubuli, mean score (0-3)",[1]; [3],0.18
same,"Kidney: chronic disease, mean score (0-3)",[1]; [3],0.88
same,"Kidney: mineralization (parenchum/pelvis), mean score (0-3)",[1]; [3],0.84
same,"Pancreas: vasculopathy, mean score (0-3)",[1]; [3],0.04
same,"Kidney: basophilic tubuli, mean score (0-3)",[1]; [4],0.18
same,"Kidney: chronic disease, mean score (0-3)",[1]; [4],0.92
same,"Kidney: mineralization (parenchum/pelvis), mean score (0-3)",[1]; [4],0.64
same,"Pancreas: vasculopathy, mean score (0-3)",[1]; [4],0.02
same,"Kidney: basophilic tubuli, mean score (0-3)",[1]; [5],0.42
same,"Kidney: chronic disease, mean score (0-3)",[1]; [5],0.78
same,"Kidney: mineralization (parenchum/pelvis), mean score (0-3)",[1]; [5],0.14
same,"Pancreas: vasculopathy, mean score (0-3)",[1]; [5],0.00
same,"Kidney: basophilic tubuli, mean score (0-3)",[1]; [6],0.18
same,"Kidney: chronic disease, mean score (0-3)",[1]; [6],1.32
same,"Pancreas: vasculopathy, mean score (0-3)",[1]; [6],0.04
same,"Parathyroid gland: diffuse hyperplasia, mean score (0-3)",[1]; [6],0.08
same,"Parathyroid gland: focal hyperplasia, mean score (0-3)",[1]; [6],0.04
same,"Testis: vasculopathy, mean score (0-3)",[1]; [6],0.20
same,"Kidney: basophilic tubuli, mean score (0-3)",[1]; [7],0.18
same,"Kidney: chronic disease, mean score (0-3)",[1]; [7],1.24
same,"Pancreas: vasculopathy, mean score (0-3)",[1]; [7],0.02
same,"Parathyroid gland: diffuse hyperplasia, mean score (0-3)",[1]; [7],0.15
same,"Parathyroid gland: focal hyperplasia, mean score (0-3)",[1]; [7],0.02
same,"Testis: vasculopathy, mean score (0-3)",[1]; [7],0.08
same,"Abdominal mesothelia: vasculopathy, mean score (0-3)",[1]; [8],0.00
same,"Kidney: basophilic tubuli, mean score (0-3)",[1]; [8],0.60
same,"Kidney: chronic disease, mean score (0-3)",[1]; [8],0.66
same,"Pancreas: vasculopathy, mean score (0-3)",[1]; [8],0.00
same,"Parathyroid gland: diffuse hyperplasia, mean score (0-3)",[1]; [8],0.02
same,"Parathyroid gland: focal hyperplasia, mean score (0-3)",[1]; [8],0.00
same,"Testis: vasculopathy, mean score (0-3)",[1]; [8],0.02
same,blood pressure,[2],acutely lowers blood pressure
same,antioxidative effect on human LDL,human LDL,no antioxidative effect
same,stroke volume,anaesthetized dogs,augments stroke volume
same,total peripheral vascular resistance,anaesthetized dogs,decreases total peripheral vascular resistance
